Data taken from patent US7713942B2, “Cage-like microparticle complexes comprising sterols and saponins for delivery of polynucleotides” (Nordic Vaccine Technology A/S, priority 2001, dated 2010).
Values joined by “and” are separate entries in the source; they are usually repeats but may differ in a detail not shown here. Equal entries are not always repeated.

Key:
[1] = dose-dependent, apparently nonspecific; cited from earlier work
[2] = Equilibrium-dialysis of ^14C-Mega 10 from ISCOM-matrix; details: water not replaced
Description: ISCOMs were prepared by combining Quil A, cholesterol and phophatidylcholine with the component to be inserted (e.g. lipopeptide). ISCOMs were allowed to form for 4 hours with stirring at 35° C. (room temperature for experiments with ^12C/^14C-Mega 10) followed by dialysis against phosphate buffered saline (pH 7.2) in Slide-A-Lyzer® cassettes (Pierce, Rockford, Ill.) or dialysis tubing (Visking, London, UK), MW cut-off 10,000. The concentration in the reaction mixture of Quil A ranged 0.9 mg/ml to 1.3 mg/ml for the different preparations (see Section 3), whereas the concentration of cholesterol and phophatidylcholine was 0.03% w/v in all experiments. The final concentration of Mega 10 was 4% w/v unless otherwise stated.
In the first experiment the kinetics of the Mega 10-dialysis was investigated. ISCOM-matrix was formed in the presence of 7% w/v ^12C/^14C-Mega 10 and Quil A at a concentration of 0.9 mg/ml. From a total volume of 18.3 ml sixteen aliquots of 1 ml were taken and set up for dialysis against water in 8 beakers of 1000 ml (2×1 ml bags per 1000 ml water). Four beakers were placed at room temperature and four at 4° C. with stirring. On each of the following days one beaker from both temperatures were taken and the contents of the individual dialysis bags (2×2 bags) counted after addition of water in order to compensate for differences in volume. Table 1 lists the amount of ^14C-Mega 10 remaining in each bag after dialysis for a certain period of time given as the percentage of cpm (counts per minute) relative to the initial ^14C-contents. […] However, the same end-point concentration of ^14C-Mega 10 was reached within four days (0.4-1%) despite of temperature. Anticipating that Mega 10 diffuses freely across the dialysis membrane one would expect the contents of dialysis bags to represent 0.51% of the total ^14C-Mega 10, as the volume of two bags (from one beaker) at equilibrium was 5.1 ml leaving approx. 995 ml in the beaker (5.1 ml/995 ml*100%=0.51%). And it is concluded that although dialysis at room temperature is faster than dialysis at 4° C. both methods are equally efficient in removing Mega 10 from ISCOM-matrix.

[3] = End-point-dialysis of ^14C-Mega 10 from ISCOM-matrix; details: for Amount of detergent remaining in bags: Room temperature, daily replacement of water
Description: In order to further investigate if Mega 10 could be completely removed from ISCOM-matrix a second experiment was designed. Here, four dialysis bags containing 1 ml of ISCOM-matrix prepared with 3.3% w/v ^12C/^14C-Mega 10 was placed in individual beakers containing 1000 ml of water. Dialysis was performed at room temperature with stirring. Each day one beaker was taken and the contents of the dialysis bag counted after which the dialysis buffer (water) of the remaining beakers was replaced.

Row | Amount of detergent remaining in dialysis bags ([2]; Room temperature, 1 day) | Amount of detergent remaining in dialysis bags ([2]; Room temperature, 2 days) | Amount of detergent remaining in dialysis bags ([2]; Room temperature, 3 days) | Amount of detergent remaining in bags ([3]; 1 day) | Amount of detergent remaining in bags ([3]; 2 days) | Amount of detergent remaining in bags ([3]; 3 days) | Amount of detergent remaining in bags ([3]; 4 days) | original amount of detergent remaining within the dialysis bag ([3]; at equilibrium, with replacement of water) | Structure (SMILES) | immunomodulating activity [1] | Amount of detergent remaining in dialysis bags ([2]; 4° C., 1 day) | Amount of detergent remaining in dialysis bags ([2]; 4° C., 2 days) | Amount of detergent remaining in dialysis bags ([2]; 4° C., 3 days) | Amount of detergent remaining in dialysis bags ([2]; 4° C., 4 days) | Amount of detergent remaining in dialysis bags ([2]; Room temperature, 4 days)
1 | – | – | – | – | – | – | – | – | CC(=O)O[C@@H]1[C@H](O[C@@H]2O[C@@H](CO)[C@H](O)[C@H]2O)[C@@H](O[C@@H]2O[C@@H](C)[C@H](O[C@@H]3OC[C@@H](O)[C@H](O)[C@H]3O)[C@@H](O)[C@H]2O)[C@H](OC(=O)[C@]23CCC(C)(C)C[C@H]2C2=CC[C@@H]4[C@@]5(C)CC[C@H](O[C@@H]6O[C@H](C(=O)O)[C@@H](O)[C@H](O[C@@H]7OC[C@@H](O)[C@H](O)[C@H]7O)[C@H]6O[C@@H]6O[C@H](CO)[C@H](O)[C@H](O)[C@H]6O)[C@@](C)(C=O)[C@H]5CC[C@@]4(C)[C@]2(C)CC3)O[C@@H]1C [Squarroside A] | a suppressive effect at concentrations in the μg range and a stimulant effect in the pg range | – | – | – | – | –
2 | 2.1 percentage of initial cpm | 0.9 percentage of initial cpm | 0.9 percentage of initial cpm | 0.23% | 0.07% | 0.06% | 0.07% | 0.07% | CCCCCCCCCC(=O)N(C)CC(O)C(O)C(O)C(O)CO (centres unmarked) [^14C-Mega 10, N-Decanoyl-N-methylglucamide] | – | 14.5 percentage of initial cpm and 13.5 percentage of initial cpm | 2.2 percentage of initial cpm and 2.3 percentage of initial cpm | 1.0 percentage of initial cpm and 1.3 percentage of initial cpm | 0.7 percentage of initial cpm and 1.1 percentage of initial cpm | 0.7 percentage of initial cpm and 0.4 percentage of initial cpm
